Measurements reported in patent publication US20220177587A1, “METHODS AND USES OF VARIANT CD80 FUSION PROTEINS AND RELATED CONSTRUCTS” (Alpine Immune Sciences, Inc., priority 2018, published 2022).

How the values were obtained:
allogeneic CD4+ T cells = experiment: Mixed Lymphocyte Reaction (MLR), IFN-gamma; type: cell-based, human; conditions: Table E33; culture supernatant
Procedure: Soluble rCD80.Fc bioactivity was tested in a human Mixed Lymphocyte Reaction (MLR). Human primary dendritic cells (DC) were generated by culturing monocytes isolated from PBMC (BenTech Bio, USA) in vitro for 7 days with 500U/ml rIL-4 (R&D Systems, USA) and 250 U/ml rGM-CSF (R&D Systems, USA) in Ex-Vivo 15 media (Lonza, Switzerland). 10,000 matured DC and 100,000 purified allogeneic CD4+ T cells (BenTech Bio, USA) were co-cultured with variant CD80 Fc fusion proteins and controls in 96 well round bottom plates in 200 μl final volume of Ex-Vivo 15 media. On day 5, IFN-gamma secretion in culture supernatants was analyzed using the Human IFN-gamma Duoset ELISA kit (R&D Systems, USA). Optical density was measured by VMax ELISA Microplate Reader (Molecular Devices, USA) and quantitated against titrated rIFN-gamma standard included in the IFN-gamma Duo-set kit (R&D Systems, USA).

human pan T cells = experiment: Anti-CD3 coimmobilization assay, IFN-gamma; type: cell-based; conditions: Table E33; culture supernatant, 3 days
Procedure: Costimulatory bioactivity of CD80 fusion variants was determined in anti-CD3 coimmobilization assays. 1 nM or 4 nM mouse anti-human CD3 (OKT3, Biolegends, USA) was diluted in PBS with 1 nM to 80 nM rCD80.Fc variant proteins. This mixture was added to tissue culture treated flat bottom 96-well plates (Corning, USA) overnight to facilitate adherence of the stimulatory proteins to the wells of the plate. The next day, unbound protein was washed off the plates and 100,000 purified human pan T cells (BenTech Bio, US) or human T cell clone BC3 (Astarte Biologics, USA) were added to each well in a final volume of 200 μl of Ex-Vivo 15 media (Lonza, Switzerland). Cells were cultured 3 days before harvesting culture supernatants and measuring human IFN-gamma levels with Duoset ELISA kit (R&D Systems, USA) as described above.

[1] = system: huPD-L1 transduced MC38 tumor cells; experiment: In vitro cytotoxicity to huPD-L1 transduced MC38 tumor cells; type: cell-based, mouse; conditions: 100 nM or 10 nM; 72 hours; human pan T cells 1:5; FIG. 17
Procedure: This Example describes the assessment of in vitro cytotoxicity of huPD-L1 transduced MC38 tumor cells. MC38 tumor cells, non-transduced or transduced with huPD-L1, were treated with Mitomycin-C and plated with human pan T cells labelled with CFSE at a 1:5 ratio. […] As a control, an exemplary anti-PD-1 antibody nivolumab or an Fc (inert) only control also were assessed. Cells were then harvested and stained with 7-AAD viability dye. After acquiring samples on a flow cytometer, the percentage of dead cells was calculated using Flowjo analysis by gating on 7-AAD+ cells in the CFSE− gate.

huPD-L1/MC38 cells = experiment: huPD-L1 MC38 tumor model, combination with oxaliplatin; type: in vivo, mouse; conditions: monotherapy
Procedure: To test the anti-tumor activity of the exemplary variant, it was evaluated alone or in combination with the platinum-based chemotherapeutic agent, oxaliplatin, in mice bearing human PD-L1-expressing MC38 tumors, which is a syngeneic mouse colon carcinoma solid tumor model.
The huPD-L1 MC38 cell line was generated by transducing parental MC38 cells with huPD-L1 using viral transduction. Eight-week old female C57/BL6NJ mice (The Jackson Laboratories, Sacramento, Calif.) were implanted subcutaneously with 0.5×10^6 huPD-L1/MC38 cells. For injections, 0.1 mL of cells (0.5×10^6 cells) were injected subcutaneously (SC) in the right mid-flank region.
On day 1, mice were randomized into four groups of 10 mice each, with all mice in each group having about equal mean tumor volumes (˜108 mm^3). Tumors were measured with electronic calipers two-dimensionally twice weekly, beginning on day 7 post-tumor cell implant (referred to as “day 1”). Tumor volume was calculated as length×(width×2)×0.5, with the length being the longer of the two measurements.
As shown, 30% of the mice in the monotherapy group were tumor free by the end of the study.

MC38 hPD-L1 tumor cells = experiment: MC38 hPD-L1 tumor model in C57BL/6 mice; type: in vivo, mouse
Procedure: Mouse MC38 tumor cells were stably transfected with human PD-L1 (MC38 hPD-L1) and implanted subcutaneously into C57BU6 mice. […] Tumor volume was tracked over time.
70 female C57CL/6 mice, containing similar tumor volumes of approximately 50-51 mm^3, following implantation of MC38 hPD-L1 tumor cells, were staged and divided into 5 treatment groups containing 14 mice each. […] Tumor volumes were measured on days 7, 10, and 12. On day 13, 5 animals were sacrificed for analysis as described in the sections below. Tumor measurements resumed for the remaining 9 mice for each group on days 17, 20 and 27. On days 26, 28, and 31, the animals in Group 1 (Fc isotype control) received an intratumoral injection of 100 μg E35D/M47L CD80-IgV-Fc.
95 female C57BU6 mice were implanted with MC38 hPD-L1 tumor cells. The tumors were staged on Day 7, and 77 mice with similar tumor volumes of approximately 60 mm^3 were divided into 7 treatment groups containing 11 mice each.
On day 49, tumor-free mice, from Groups 3, 4, 6, and 7, and 2 naïve C57CL/6 mice were re-challenged with an additional injection of hPD-L1 MC38 cells. Tumor volumes were measured on days 56, 59, and 63. The results are depicted in FIG. 13. […] At day 59, 8/8 mice from Group 3, 1/2 mice from Group 4, 1/1 mouse from Group 6, and 2/2 mice from Group 7 were tumor-free, and by day 63, all mice in Group 3, Group 4, Group 6, and Group 7 were tumor-free.
75 animals were staged into 3 treatment groups 7 days after implantation with hPD-L1 MC38 tumor cells. […] Tumor volumes were measured every 3-4 days, from Day 11 until Day 35. 3 days after the 1st dose, 2nd dose and 3rd dose, 4 mice from each group were sacrificed for tumor and LN analyses, leaving 13 mice for tumor volume measurements throughout the study period.

[2] = system: primary human pan T cells; experiment: Cytokine production following PD-L1-dependent costimulation; type: cell-based; conditions: mitomycin-c treated K562/OKT3/PDL1 aAPC; FIG. 6
[3] = 3 injections of 100 μg on Days 8, 10 and 12
[4] = re-challenged on day 49 with hPD-L1 MC38 cells

WTCD80
MLR IFN-gamma levels (allogeneic CD4+ T cells): 19211 pg/mL | Coimmobilization with anti-CD3 IFN-gamma (human pan T cells): 509 pg/mL

nivolumab [reference compound]
cytotoxicity (percentage of dead 7-AAD+ tumor cells) [1]: cytotoxic activity was not observed

O=C1[O][Pt]2([NH][C@@H]3CCCC[C@H]3[NH]2)[O]C1=O [oxaliplatin, reference compound]
antitumor activity (huPD-L1/MC38 cells): only modestly effective as monotherapy | tumor free mice by the end of the study (huPD-L1/MC38 cells): no tumor-free mice

durvalumab [reference compound]
mice with no detectable tumors (tumor-free) upon completion of the study (MC38 hPD-L1 tumor cells; 100 μg on days 7, 9 and 11, 11 mice per group): 2 mice | tumor-free mice at day 35 (MC38 hPD-L1 tumor cells; [3]): 3/13 | tumor-free mice on Day 18 (MC38 hPD-L1 tumor cells; [3]): 3/13 | tumor-free mice after re-challenge, day 59 (MC38 hPD-L1 tumor cells; [4]): 2/2 | tumor-free mice after re-challenge, day 63 (MC38 hPD-L1 tumor cells; [4]): tumor-free | IL-2 secretion in culture supernatants [2]: IL-2 production was not observed
